≈ marks a conversion by molar mass, not a printed value. Where two headings read alike, the source gives them in different places.
How the values were obtained:
[1] = test system: amphetamine induced behavioural stereotypies; assay: Anti-amphetamine test: inhibition of compulsory gnawing and chewing responses to amphetamine; assay type: in vivo, Sprague Dawley female rats; details: Rattus norvegicus, sc, read-out: ED50, Anti-amphetamine test
Experimental: Conventional types of neuroleptics are potent inhibitors of amphetamine induced behavioural stereotypies. One determines in Sprague Dawley female rats the ability of subcutaneously administered compounds to inhibit compulsory gnawing and chewing responses to a subcutaneous dose of 10 mg/kg of amphetamine administered half an hour after the compound to be tested. The new compounds of formula I are weak antagonists in this test.
(§1) The ED50 -values expressed in milligrams per kilogram body weight in the anti-amphetamine test, in the anti-apomorphine test and in the inhibition of aggression test are presented in Table I.

[2] = test system: apomorphine induced emesis; assay: Anti-apomorphine test: antagonism of apomorphine induced emesis; assay type: in vivo, dogs; details: Canis lupus familiaris, sc, read-out: ED50, Anti-apomorphine test
Experimental: All typical chloropromazine-like neuroleptics are powerful antagonists of apomorphine induced emesis in dogs by virtue of their blocking action on the chemo-emetic trigger zone. The compounds listed in Table I were administered subcutaneously. The animals were challenged half an hour after subcutaneous administration with a standard dose of 0.06 mg/kg of apomorphine hydrochloride (subcutaneously). […] The ED50 -values expressed in milligrams per kilogram body weight in the anti-amphetamine test, in the anti-apomorphine test and in the inhibition of aggression test are presented in Table I.

[3] = test system: isolation induced aggressive behaviour; assay: Isolation induced aggressive behaviour test (inhibition of aggression); assay type: in vivo, Male albino mice; details: Mus musculus, sc, 1 h, read-out: ED50, Inhibition aggression test
Experimental: Male albino mice were used. Tests were conducted 60 minutes after subcutaneous drug administration.
as §1

[4] = test system: acetylcholine induced contraction of guinea pig ileum; assay: Anticholinergic activity: acetylcholine induced contraction of guinea pig ileum; details: acetylcholine 0.02 μg/ml, 50% inhibition of the contraction
[5] = test system: histamine induced contraction of guinea pig ileum; assay: Antihistaminic activity: histamine induced contraction of guinea pig ileum; details: histamine 0.2 μg/ml, 50% inhibition of the contraction
[6] = test system: serotonin induced contraction of the rat ileum; assay: Antiserotoninergic activity: serotonin induced contraction of the rat ileum; details: serotonin 220 ng/ml, 50% inhibition of the contraction
Experimental: They show antiserotoninergic activity evaluated from the effects on serotonin (220 ng/ml) induced contraction of the rat ileum.

[7] = male albino mice, 60 minutes after subcutaneous administration

Structure (SMILES)	ED50 ([1]; rats, subcutaneous, half an hour before 10 mg/kg amphetamine s.c.) [mg/kg]	ED50 ([2]; dogs, subcutaneous, half an hour before 0.06 mg/kg apomorphine hydrochloride s.c.) [mg/kg]	ED50 [3, 7] [mg/kg]	ED50, Anticholinergic activity [4]	ED50, Antihistaminic activity [5]	ED50, Antiseroto-ninergic activity [6]	ED50 [1] [mg/kg]	ED50 [3] [mg/kg]	ED50 [2] [mg/kg]
COc1cc(C(C)=O)ccc1OCCCN1CCC(O)(C(=O)c2ccc(F)cc2)CC1 [I, 1-[3-(p-acetyl-o-methoxyphenoxy)-propyl]-4-(p-fluorobenzoyl)-4-hydroxypiperidine]	20	7.1	0.5	> 100 µg/mL	0,06 μg/ml	0,1 μg/ml	–	–	–
O=C(CCCN1CCC(O)(c2ccc(Cl)cc2)CC1)c1ccc(F)cc1 [Haloperidol, haloperidol]	–	–	–	–	–	–	0.03	0.8	–
COc1cc(C(C)=O)ccc1OCCCCN1CCC(O)(C(=O)c2ccc(F)cc2)CC1 [II]	–	–	1.5	–	–	–	–	–	–
CCC(=O)OC1(C(=O)c2ccc(F)cc2)CCN(CCCOc2ccc(C(C)=O)cc2OC)CC1 [III]	–	–	2	–	–	–	–	–	–
CN(C)CCCN1c2ccccc2Sc2ccc(Cl)cc21 [Chlorpromazine, chlorpromazine]	–	–	–	1,7 μg/ml	0,03 μg/ml	6 µg/mL (≈ 18.8 µM)	1.2	0.4	0.7
